Test results: US7829567B2, “Imino-indeno[1,2-c] quinoline derivatives, their preparation processes, and pharmaceutical compositions comprising the same” (Kaohsiung Medical University, priority 2007, dated 2010)
Where two headings read alike, the source gives them in different places.

How the values were obtained:
Type in all cases: cell-based
[1] = system: human renal clear cell carcinoma; assay: In vitro anticancer assay (MTT), RCC 768-O; settings: RCC 768-O cells, 48 hrs, mean ± spread, read-out: Anti-proliferative evaluation IC50, RCC 768-O
Protocol: (§1) The resultant tetrazolium salt was then dissolved by the addition of dimethyl sulfoxide. Color was measured spectrophotometrically in a microtiter plate reader at 570 nm and used as a relative measure of viable cell number. The number of viable cells after treatment was compared to solvent and untreated control cells and used to determine the percent of control growth as (Abtreated/Abcontrol)×100, where Ab represents the mean absorbance (n=3). […] D. Heo et al. […] (+)-camptothecin (CPT) and doxorubicin hydrochloride (Dox) were used for comparison with the compounds according to this invention.

[2] = system: oral squamous cell carcinoma (SAS); assay: In vitro anticancer assay (MTT), SAS; settings: SAS cells, 48 hrs, mean ± spread, read-out: Anti-proliferative evaluation IC50, SAS
Protocol: as §1

[3] = system: esophageal carcinoma (CE81T); assay: In vitro anticancer assay (MTT), CE81T; settings: CE81T cells, 48 hrs, mean ± spread, read-out: Anti-proliferative evaluation IC50, CE81T
Protocol: as §1

[4] = system: hepatocellular carcinoma (SKHep1); assay: In vitro anticancer assay (MTT), SKHep1; settings: 48 hrs, mean ± spread, read-out: Anti-proliferative evaluation IC50, SKHep1
Protocol: as §1

[5] = system: human cervical epithelioid carcinoma (HeLa); assay: In vitro anticancer assay (MTT), HeLa; settings: HeLa cells, 48 hrs, mean ± spread, read-out: Anti-proliferative evaluation IC50, HeLa
Protocol: as §1

[6] = system: human stomach adenocarcinoma (AGS); assay: In vitro anticancer assay (MTT), AGS; settings: AGS cells, 48 hrs, mean ± spread, read-out: Anti-proliferative evaluation IC50, AGS
Protocol: as §1

[7] = Homo sapiens, SK-HEP1, SKHep1 cells

SMILES	IC50 ([1]; Homo sapiens)	IC50 [2]	IC50 [3]	IC50 [4, 7]	IC50 ([5]; Homo sapiens)	IC50 ([6]; Homo sapiens)	IC50 [1]	IC50 ([4]; SKHep1 cells)	IC50 [5]	IC50 [6]
CC[C@@]1(O)C(=O)OCc2c1cc1n(c2=O)Cc2cc3ccccc3nc2-1 [CPT, (+)-camptothecin, reference compound]	2.8 ± 0.7 µM	6 ± 2.7 µM	2.8 ± 1.5 µM	0.2 ± 0.1 µM	0.3 ± 0.1 µM	> 30 µM				
O=C1c2ccccc2-c2c(N3CCNCC3)nc3ccccc3c21 [Compound 5aa]		10.7 ± 0.9 µM	11.1 ± 8.5 µM				7.7 ± 0.4 µM	1.7 ± 1.1 µM	1.1 ± 0.6 µM	6.5 ± 2.6 µM
COc1ccc2c(c1)C(=O)c1c-2c(N2CCN(C(=O)CCNCCO)CC2)nc2ccccc12 [Compound 5aaa]		9.1 ± 1.6 µM	7.1 ± 0.9 µM				2 ± 1.4 µM	4.5 ± 1.1 µM	3.1 ± 1.2 µM	3.7 ± 0.5 µM
CN(C)CCCNc1nc2ccccc2c2c1-c1ccccc1C2=O [Compound 5b]		6.9 ± 0.5 µM	> 30 µM				10 ± 0.8 µM	4.6 ± 1.5 µM	4 ± 0.9 µM	9.8 ± 4 µM
COc1ccc2c(c1)C(=O)c1c-2c(N2CCN(C(=O)CCNCCN(C)C)CC2)nc2ccccc12 [Compound 5bbb, 6-{4-{3-[2-(Dimethylamino)ethylamino]propanoyl}piperazin-1-yl}-9-methoxy-11H-indeno[1,2-c]quinolin-11-one]	7 ± 1.3 µM	8.8 ± 1 µM	7.4 ± 2 µM	5.1 ± 1.5 µM	4.8 ± 1.5 µM	4.9 ± 1 µM				
O=C1c2ccccc2-c2c(NCCNCCO)nc3ccccc3c21 [Compound 5c, 6-[2-(2-Hydroxyethylamino)ethylamino]-11H-indeno[1,2-c]quinolin-11-one]	8.3 ± 0.6 µM	7.3 ± 0.6 µM	> 30 µM	4.3 ± 1.5 µM	1 ± 0.3 µM	7.9 ± 1.7 µM				
COc1ccc2c(c1)C(=O)c1c-2c(N2CCN(C(=O)CCNCCCN(C)C)CC2)nc2ccccc12 [Compound 5ccc]		13.5 ± 2.2 µM	9.4 ± 0.6 µM				5.9 ± 0.9 µM	8.6 ± 0.7 µM	5.4 ± 1.3 µM	2.8 ± 1.3 µM
COc1cc2c(cc1OC)-c1c(N3CCNCC3)nc3ccccc3c1C2=O [Compound 5dd, 8,9-Dimethoxy-6-(piperazin-1-yl)-11H-indeno[1,2-c]quinolin-11-one]	7.1 ± 0.6 µM	11.7 ± 1.6 µM	8.3 ± 0.3 µM	6.6 ± 3.2 µM	7 ± 1.2 µM	7.4 ± 2.1 µM				
COc1ccc2c(c1)C(=O)c1c-2c(N2CCN(C(=O)CCNCCNCCN)CC2)nc2ccccc12 [Compound 5ddd]		> 30 µM	> 30 µM				> 30 µM	> 30 µM	> 30 µM	10.8 ± 0.2 µM
COc1ccc2c(c1)C(=O)c1c-2c(N2CCNCC2)nc2ccc(F)cc12 [Compound 5ee, 2-Fluoro-9-methoxy-6-(piperazin-1-yl)-11H-indeno[1,2-c]quinolin-11-one]	4.7 ± 3 µM	6.9 ± 0.5 µM	0.9 ± 0.6 µM	16.5 ± 5.1 µM	> 30 µM	6.5 ± 0.9 µM				
COc1ccc2c(c1)C(=O)c1c-2c(N2CCN(C(=O)CCNCCNCCO)CC2)nc2ccccc12 [Compound 5eee]		> 30 µM	> 30 µM				15 ± 3.5 µM	11.2 ± 0.9 µM	10.6 ± 1.2 µM	16 ± 0.9 µM
COc1ccc2c(c1OC)C(=O)c1c-2c(N2CCNCC2)nc2ccc(Cl)cc12 [Compound 5ff, 2-Chloro-9,10-dimethoxy-6-(piperazin-1-yl)-11H-indeno[1,2-c]quinolin-11-one]	6.9 ± 0.3 µM	11 ± 3.2 µM	> 30 µM	4.7 ± 2.2 µM	4.6 ± 0.7 µM	9.5 ± 2.7 µM				
COc1ccc2c(c1)C(=O)c1c-2c(N2CCN(C(=O)CCNCCCN(C)CCCN)CC2)nc2ccccc12 [Compound 5fff]		> 30 µM	> 30 µM				> 30 µM	23.5 ± 1.4 µM	> 30 µM	10.8 ± 1.9 µM
COc1ccc2c(c1)C(=O)c1c-2c(N2CCN(C(=O)CCN3CCNCC3)CC2)nc2ccccc12 [Compound 5ggg]		7.7 ± 0.9 µM	7.2 ± 1.5 µM				1.5 ± 1.3 µM	4.9 ± 1.1 µM	4.7 ± 1.4 µM	5.5 ± 0.5 µM
COc1ccc2c(c1)C(=O)c1c-2c(N2CCN(C(=O)CCN3CCOCC3)CC2)nc2ccccc12 [Compound 5hhh]		> 30 µM	> 30 µM				> 30 µM	15 ± 5.9 µM	14.3 ± 4.4 µM	12 ± 1.3 µM
COc1ccc2c(c1)C(=O)c1c-2c(NCCCN(C)C)nc2ccccc12 [Compound 5i, 6-[3-(Dimethylamino)propylamino]-9-methoxy-11H-indeno[1,2-c]quinolin-11-one]	> 30 µM	5.5 ± 0.5 µM	7.1 ± 0.3 µM	11.5 ± 5.4 µM	2 ± 0.4 µM	14.3 ± 0.5 µM				
COc1ccc2c(c1)C(=O)c1c-2c(N2CCN(C(=O)CCNCCN3CCNCC3)CC2)nc2ccccc12 [Compound 5iii]		> 30 µM	> 30 µM				> 30 µM	11.5 ± 5.6 µM	> 30 µM	13.4 ± 1.3 µM
COc1ccc2c(c1)C(=O)c1c-2c(N2CCN(C(=O)CCCN(C)C)CC2)nc2ccccc12 [Compound 5jjj]		8 ± 0.8 µM	> 30 µM				5.3 ± 0.5 µM	5.5 ± 0.8 µM	4.9 ± 1.7 µM	5.4 ± 0.6 µM
CNCC(=O)N1CCN(c2nc3ccccc3c3c2-c2ccc(OC)cc2C3=O)CC1 [Compound 5kk]		7.4 ± 0.9 µM	2.3 ± 1.3 µM				6.2 ± 1.9 µM	4.8 ± 2.1 µM	2 ± 0.6 µM	7.2 ± 1.5 µM
COc1ccc2c(c1)C(=O)c1c-2c(N2CCN(CC3CO3)CC2)nc2ccccc12 (stereo not shown) [Compound 5kkk, 9-methoxy-6-[4-(oxiran-2-ylmethyl)piperazin-1-yl]-11H-indeno[1,2-c]quinolin-11-one]	19.1 ± 3.1 µM	> 30 µM	0.6 µM	> 30 µM	10.7 ± 1.2 µM	21.4 ± 10.1 µM				
COc1ccc2c(c1)C(=O)c1c-2c(N2CCN(C(=O)CN(C)C)CC2)nc2ccccc12 [Compound 5ll]		> 30 µM	> 30 µM				14.1 ± 3.4 µM	19.2 ± 5.4 µM	11.8 ± 2.8 µM	8.7 ± 1.2 µM
CNCC(O)CN1CCN(c2nc3ccccc3c3c2-c2ccc(OC)cc2C3=O)CC1 (stereo not shown) [Compound 5lll, 6-{4-[2-Hydroxy-3-(methylamino)propyl]piperazin-1-yl}-9-methoxy-11H-indeno[1,2-c]quinolin-11-one]	6.4 ± 0.2 µM	7.4 ± 0.7 µM	0.9 ± 0.3 µM	3.4 ± 1.2 µM	4.6 ± 1 µM	9.6 ± 3.8 µM				
COc1ccc2c(c1)C(=O)c1c-2c(N2CCN(C(=O)CNCCN)CC2)nc2ccccc12 [Compound 5mm]		> 30 µM	> 30 µM				10.5 ± 1 µM	14.9 ± 3.6 µM	8.7 ± 1.8 µM	11.2 ± 1.5 µM
COc1ccc2c(c1)C(=O)c1c-2c(N2CCN(CC(O)CN(C)C)CC2)nc2ccccc12 (stereo not shown) [Compound 5mmm]		6.9 ± 0.5 µM	4.8 ± 4 µM				6.8 ± 0.1 µM	2.2 ± 0.8 µM	2.5 ± 0.7 µM	7.9 ± 3.8 µM
COc1ccc2c(c1)C(=O)c1c-2c(N2CCN(C(=O)CNCCO)CC2)nc2ccccc12 [Compound 5nn]		11.3 ± 0.3 µM	9.2 ± 0.8 µM				6.7 ± 0.5 µM	6.6 ± 0.9 µM	4.7 ± 2.3 µM	6.5 ± 0.6 µM
COc1ccc2c(c1)C(=O)c1c-2c(N2CCN(C(=O)CNCCN(C)C)CC2)nc2ccccc12 [Compound 5oo]		19.5 ± 3.2 µM	> 30 µM				9.4 ± 0.6 µM	16 ± 3.8 µM	8.2 ± 2.2 µM	14.1 ± 2.3 µM
COc1ccc2c(c1)C(=O)c1c-2c(N2CCN(C(=O)CNCCCN(C)C)CC2)nc2ccccc12 [Compound 5pp]		> 30 µM	> 30 µM				10 ± 2.1 µM	13.1 ± 2.7 µM	10.8 ± 3 µM	5.6 ± 2.2 µM
COc1ccc(Nc2nc3ccccc3c3c2-c2ccc(OC)cc2C3=O)c(OC)c1 [Compound 5q]		> 30 µM	22.7 ± 1.5 µM				> 30 µM	> 30 µM	> 30 µM	> 30 µM
COc1ccc2c(c1)C(=NOCCN1CCCC1)c1c-2cnc2ccccc12 [Compound 6aa, 9-methoxy-11H-indeno[1,2-c]quinolin-11-one O-2-(pyrrolidin-1-yl)ethyl oxime]	5.7 ± 1 µM	1.2 ± 0.2 µM		1.5 ± 0.3 µM	0.4 ± 0.02 µM	> 30 µM				
COc1ccc2c(c1)C(=NOCCN1CCCC1)c1c-2c(O)nc2ccccc12 [Compound 6bb, 6-hydroxy-9-methoxy-11H-indeno[1,2-c]quinolin-11-one O-2-(pyrrolidin-1-yl)ethyl oxime]	3.7 ± 0.8 µM	0.8 ± 0.1 µM		1.2 ± 0.3 µM	0.2 ± 0.02 µM	10.4 ± 3 µM				
